Test system: ABC-DLBCL patients
Experiment: Open label multicenter non-randomized clinical trial of the present compound as monotherapy in recurrent or refractory ABC-DLBCL patients
Type: in vivo, human
Method: A clinical trial was conducted by an open label multicenter non-randomized test by administering 6-amino-9-[(3R)-1-(2-butynoyl)-3-pyrrolidinyl]-7-(4-phenoxyphenyl)-7,9-dihydro-8H-purin-8-one hydrochloride, the present compound, as monotherapy to an ABC-DLBCL patient.
Among the patients who had already received treatment, who had been diagnosed as a non-Hodgkin's lymphoma, for whom higher preference order of treatment was not present, and who fell under the following definition of “recurrent” or “refractory”, patients satisfying the following conditions entered.
Recurrent: Patients who attained Complete Response (CR), Complete Response, unconfirmed (CRu), CR with incomplete marrow recovery (CRi) or Partial Response (PR) for 6 months or longer after the last treatment of non-Hodgkin's lymphoma, and for whom pathological advance was recognized.
Refractory: Patients who could not attain CR, CRu, CRi or PR after the last treatment of non-Hodgkin's lymphoma, or patients who acquired CR, CRu, CRi or PR for shorter than 6 months after the last treatment, but for whom pathological advance was recognized.
Condition: Two or more NHL treatments have already failed.
A fixed dose of the present compound was orally administered once per day, with one cycle being treatment for 28 days in 3 patients per one cohort. The schedule was such that this cycle was conducted until 6 cycles, and could be maximally extended to 24 cycles. In the first cohort, all the patients were administered at a fixed dose of 20 mg of the present compound.
Regarding the NHL patients who entered under the above conditions, an immunohistochemical method or gene expression profiling was conducted according to a conventional method using a diagnostic sample obtained by tissue biopsy excising a part of affected lymph node, so that patients affected with ABC-DLBCL were extracted.
Primary evaluation items were safety, tolerance and dose limiting toxicities (DLTs). These items were evaluated using manifestation of adverse event, physical examination, clinical test, vital sign and cardiograph. In addition, the intensity of the adverse event was determined using Common Terminology Criteria for Adverse Events (CTCAE) version 4.0 of the National Cancer Institute.
Secondary evaluation items were Overall Response Rate (ORR), Complete Response Rate (CR, CRu, CRi), Partial Response Rate (PR), Progression Free Survival (PFS), Overall Survival (OS), Duration of Response, Event Free Survival (EFS), Pharmacokinetics (PK) and Pharmacodynamics (PD). In addition, the evaluations of CR, CRu and PR were conducted by referring to evaluation criteria described in Journal of Clinical Oncology, Vol. 17, No. 4, pages 1244-1253, 1999.
Biopsy samples of tumor were obtained from ABC-DLBCL patients before administration of the present compound. From the samples, genomic DNA was extracted by conventional method, and the presence or absence of CD79B mutation was confirmed in accordance with the method described in Nature, No. 463, pages 88-92, 2010. As a result, it was seen that, among the 8 ABC-DLBCL patients, all of 7 evaluable patients had CD79B wild-type gene background.

[1] = in 8 cases, cohort 4 (160 mg) or cohort 5 (520 mg)

How did the “Overall Response Rate (ORR) in ABC-DLBCL patients having CD79B wild-type” value (6 cases in 7 cases) turn out when CC#CC(=O)N1CC[C@@H](n2c(=O)n(-c3ccc(Oc4ccccc4)cc3)c3c(N)ncnc32)C1.Cl [present compound, 6-amino-9-[(3R)-1-(2-butynoyl)-3-pyrrolidinyl]-7-(4-phenoxyphenyl)-7,9-dihydro-8H-purin-8-one hydrochloride] was run?
Its value is 85%.

And the “bleeding-associated event such as intracranial bleeding as adverse event” value (13 ABC-DLBCL patients)?
The value was “not seen at all”.

What about the tolerance (13 ABC-DLBCL patients administered the present compound) of the same compound?
Its tolerance is “high tolerance”.

And the “Overall Response Rate (ORR)” value (ABC-DLBCL patients, 8 cases, cohort 4 (160 mg) or cohort 5 (520 mg), oral once per day)?
Its value is 75%.

And the “adverse events classified into grade 3 (drug reaction and lymphopenia)” value (among the 5 cases with adverse event of 13 cases, CTCAE version 4.0)?
The value was 2 cases.

What about the PR cases [1] of the same compound?
Its PR cases is 6 cases.

And the disease progression cases [1]?
The disease progression cases was 2 cases.

And the “median value of decrease in lymph node” value (in the 6 PR cases, cohort 4 (160 mg) or cohort 5 (520 mg))?
Its value is 81.5%.

What about the “decrease in lymph node swelling recognized” value (of 8 ABC-DLBCL patients, first administration cycle, oral once per day) of the same compound?
The value was 6 patients.

What about the “adverse event associated with the present compound” value (of 13 cases) of the same compound?
Its value is 5 cases.
